Laboratory results as given in a melting point compilation (Tetko et al.; mined from patent text by program, amines drawn as free bases though some values may be those of a salt).

For `CC(C)(CO)Cc1ccc(-c2ccc(CC(C)(C)CO)cc2)cc1`, which melting point is on record?
Its melting point is 168 to 170 °C.

Which melting point does the source give for `CN1CCN(C2=Nc3ccccc3N3CCCc4cc(Br)cc2c43)CC1` here?
The melting point was 181 to 183 °C.

With `Cc1cccc(SCn2cc(Br)cnc2=O)c1` as the molecule, how does the melting point read?
The melting point was 164 °C.

Which melting point does the source give for `Cc1ccc(C2CC3C=CC2C3)n1CCC1CC(O)CC(=O)O1` (stereo not drawn) here?
The melting point was 125 to 126 °C.

For `COC(=O)OCc1cnc(C)c(OC(=O)OC)c1`, which melting point is on record?
Its melting point is 65 °C.

Which melting point does the source give for `O=C(O)C1=Cc2cc(C(=O)c3ccc(O)cc3)ccc2OC1C(F)(F)F` (stereo not drawn) here?
Its melting point is 234 to 240 °C.

Which melting point does the source give for `O=C(O)C(CC(=O)N1CCOCC1)Cc1cccc2ccccc12` (stereo not drawn) here?
The melting point was 62 to 66 °C.

Which melting point does the source give for `O=C(NCCCCCCCCNC(=O)c1ccc2c(c1)OCO2)c1ccc2c(c1)OCO2` here?
The melting point was 179 to 180 °C.

For `CC(C)[C@H](NC(=O)OC(C)(C)C)C(=O)N[C@H](CCC(=O)OCc1ccccc1)C(N)=O`, which melting point is on record?
The melting point was 149 to 151 °C.

Which melting point does the source give for `CC(C)(O)c1ccc(-c2ccc(C(C)(C)O)cc2)cc1` here?
The melting point was 161 °C.

With `CCN(CC)C(=O)c1ccccc1C1CC1c1ccccc1` (stereo not drawn) as the molecule, how does the melting point read?
Its melting point is 52 to 53 °C.

For `C[C@H](O)C#Cc1cc(CN2CCOCC2)cc2c(=O)c(C(=O)NCc3ccc(Cl)cc3)cn(C)c12`, which melting point is on record?
The melting point was 158 to 161 °C.

With `Cc1ccc(S(=O)(=O)Nc2ccc3nnc(C(=O)O)c(O)c3c2)cc1` as the molecule, how does the melting point read?
Its melting point is 272 to 273 °C.

With `OCc1ccc(-c2cc3c(Nc4ccc(F)c(Cl)c4)ncnc3[nH]2)cc1` as the molecule, how does the melting point read?
The melting point was greater than 300 °C.

For `O=C(N=C1CCCN1Cc1ccccc1)Nc1ccc(F)c(Cl)c1`, which melting point is on record?
Its melting point is 131 to 132 °C.

Which melting point does the source give for `COc1c(O)cc(O)c2c(=O)cc(-c3ccccc3)oc12` here?
Its melting point is 202 to 203 °C.

With `O=C(Cc1ccn(-c2ccc(F)cc2)c1)N1C(=O)OC[C@@H]1Cc1ccccc1` as the molecule, how does the melting point read?
The melting point was 106 to 108 °C.

For `O=C(O)CCc1ccc(NS(=O)(=O)c2ccc(Cl)cc2)cn1`, which melting point is on record?
Its melting point is 144 to 146 °C.

Which melting point does the source give for `COC[C@H](C)Oc1cc(O)cc(C(=O)O)c1` here?
Its melting point is 95 °C.

With `Clc1cn2ccnc2c(Br)n1` as the molecule, how does the melting point read?
The melting point was 146 to 147 °C.

For `N#Cc1cnc2sc(-c3cccc(C=O)c3)cc2c1Nc1cccc2[nH]ccc12`, which melting point is on record?
Its melting point is greater than 245 °C.

Which melting point does the source give for `NC(=O)c1[nH]c2ccc(Cl)cc2c1S(=O)(=O)c1ccccc1` here?
The melting point was 253 to 254 °C.

For `CC(=O)OS(=O)(=O)OC(C)=O`, which melting point is on record?
The melting point was 228 °C.

With `O=C1CCN(Cc2ccccc2[N+](=O)[O-])CC1C(c1ccc(F)cc1)c1ccc(F)cc1` (stereo not drawn) as the molecule, how does the melting point read?
Its melting point is 151 to 152 °C.

With `Cc1[nH]c2ccc(F)cc2c1C(=O)Nc1ccc(Oc2ccccc2)c(C#N)c1` as the molecule, how does the melting point read?
The melting point was 237 °C.

For `O=C1OC(CO)CN1c1ccc(N2CC3CSCC3C2)c(F)c1` (stereo not drawn), which melting point is on record?
The melting point was 165 to 167 °C.

Which melting point does the source give for `CC1=CC(OC(=O)c2cccn2C)C(O)C(C)(C)CC1=O` (stereo not drawn) here?
Its melting point is 141 to 142 °C.

For `COc1cccc(C(=O)N2C(=O)CN(c3ccccc3)C2=O)c1`, which melting point is on record?
The melting point was 161 to 162 °C.

Which melting point does the source give for `CS(=O)(=O)OC1CCc2c(sc(N)c2C(=O)c2ccc(Cl)cc2)C1` (stereo not drawn) here?
The melting point was 73 to 75 °C.

With `Clc1ccc2c(c1)N=C(N1CCN(C3CC3)CC1)c1ccccc1N2` as the molecule, how does the melting point read?
Its melting point is 196 to 199 °C.

For `CC(C)Oc1ccccc1-c1cc(=O)c2cc(-c3nnn[nH]3)ccc2o1`, which melting point is on record?
Its melting point is 293 to 295 °C.

With `O=C(Nc1ccncc1)c1cccc(-c2ccc3c(c2)C(Oc2ccc(Cl)cc2Cl)CC3)c1` (stereo not drawn) as the molecule, how does the melting point read?
Its melting point is 226 to 227 °C.

With `COC(=O)c1ccc(OCCNC(=O)C2Cc3ccccc3N2S(=O)(=O)c2ccc(-c3ccc(F)cc3F)cc2)cc1F` (stereo not drawn) as the molecule, how does the melting point read?
The melting point was 65 to 68 °C.

For `CC(C)Cc1nn(C)c(=O)c2cn(Cc3cccc4ccccc34)cc12`, which melting point is on record?
The melting point was 110 to 112 °C.

Which melting point does the source give for `Nc1cc(Cl)c(OCc2ccccc2-c2ccccc2)c(Cl)c1` here?
The melting point was 67 to 69 °C.

For `Cc1nc(CNC(=O)c2ccnc(N3CCN(Cc4ccc(F)cc4)C3=O)c2)cs1`, which melting point is on record?
The melting point was 76 to 78 °C.

For `CCOC(=O)[C@@H]1Cc2ccccc2N1C(=O)CC[C@@H](NC(=O)OCc1ccccc1)C(=O)OCc1ccccc1`, which melting point is on record?
The melting point was 114 to 116 °C.

For `CN1C(=O)CN2CCNC2(c2ccccc2)c2cc(Cl)ccc21` (stereo not drawn), which melting point is on record?
Its melting point is 164 to 167 °C.

Which melting point does the source give for `O=C(O)/C(=C\c1cc(-c2ccc3c(c2)OCO3)n(-c2cc(Cl)ccc2Cl)n1)c1cccc(Cl)c1` here?
The melting point was 174 °C.

For `COc1ccc(-c2nc(C(F)(F)F)[nH]c2-c2ccc(S(C)(=O)=O)cc2)cc1OC`, which melting point is on record?
The melting point was 221 to 224 °C.

With `CCCc1nc(C(C)(O)CC)c(C#N)n1C(c1ccccc1)(c1ccccc1)c1ccccc1` (stereo not drawn) as the molecule, how does the melting point read?
Its melting point is greater than 120 °C.

For `COc1ccc(Cc2cc(Oc3c(C)cc(C=C4N=C(C)OC4=O)cc3C)ccc2OC)cn1`, which melting point is on record?
The melting point was 164 to 165 °C.

For `CCOc1ccc(C2=NN(C3CCN(C(=O)Nc4ccccc4)CC3)C(=O)[C@@H]3CC=CC[C@H]23)cc1OCC`, which melting point is on record?
The melting point was 109 to 112 °C.

With `CC(=O)OCCCOc1cccc2cc(C#N)c(=O)oc12` as the molecule, how does the melting point read?
The melting point was 132 to 135 °C.

Which melting point does the source give for `CN(C)c1ccc(C2OCCN2CCNc2ccc(NCCN3CCOC3c3ccc(N(C)C)cc3)c3c2C(=O)c2c(O)ccc(O)c2C3=O)cc1` (stereo not drawn) here?
Its melting point is 150 to 154 °C.

With `Cc1nc2c(OCc3c(Cl)ccc([N+](=O)[O-])c3Cl)cccn2c1Br` as the molecule, how does the melting point read?
Its melting point is 217 to 219 °C.

With `CC(C)(C)OC(=O)NN1CCN([Si](C)(C)C)C1=O` as the molecule, how does the melting point read?
Its melting point is 132 °C.

With `Cn1cc(S(C)=O)c(=O)c2sccc21` (stereo not drawn) as the molecule, how does the melting point read?
Its melting point is 199 °C.
